The values that follow come from US20220315621A1, “COMPOSITIONS AND METHODS FOR TREATING CNS DISORDERS” (priority 2017, published 2022).

The term IC50 denotes the midpoint of a concentration-inhibition curve.

Like-named read-outs stand apart in the source and are kept apart here.

For this assay, the target named is GABAA receptor (rat brain cortical membranes, [35S]-TBPS binding). The following applies: rat brain cortical membranes, 3 nM [35S]-TBPS, in the presence of 5 mM GABA.

On to `C[C@]12CC[C@H]3[C@@H](CC[C@@H]4C[C@H](O)CC[C@@H]43)[C@@H]1CC[C@H](C(=O)Nc1ccccc1)C2` (single isomer, unassigned) [I-R24], for which, where the note is “Table I-4”, the half-inhibitory concentration (IC50) fell in the range of 1000 to 10000 nM. In the case of `C[C@@]1(O)CC[C@H]2[C@H](CC[C@@H]3[C@@H]2CC[C@]2(C)[C@@H](Nc4ccc(C#N)cc4)CCC[C@@H]32)C1` [Compound I-7, 4-(((1S,4aS,4bR,6aR,8R,10aS,10bR,12aS)-8-hydroxy-8,12a-dimethyloctadecahydrochrysen-1-yl)amino)benzonitrile], the concentration for half-maximal inhibition (IC50) (Table I-4) lay in the range of 10 to 100 nM. As to `C[C@@]1(O)CC[C@H]2[C@H](CC[C@@H]3[C@@H]2CC[C@]2(C)[C@@H](Nc4ccc(Cl)cc4)CCC[C@@H]32)C1` [Compound I-8, (2R,4aS,4bR,6aS,7S,10aS,10bR,12aR)-7-((4-chlorophenyl)amino)-2,6a-dimethyloctadecahydrochrysen-2-ol], where the note is “Table I-4”, the IC50 was in the range of 10 to 100 nM. `C[C@@]1(O)CC[C@H]2[C@H](CC[C@@H]3[C@@H]2CC[C@]2(C)[C@@H](Nc4cccc(Cl)c4)CCC[C@@H]32)C1` [Compound I-9, (2R,4aS,4bR,6aS,7S,10aS,10bR,12aR)-7-((3-chlorophenyl)amino)-2,6a-dimethyloctadecahydrochrysen-2-ol]: the IC50 (Table I-4) fell in the range of 10 to 100 nM.

`C[C@@]1(O)CC[C@H]2[C@H](CC[C@@H]3[C@@H]2CC[C@]2(C)[C@@H](Nc4cccc(C#N)c4)CCC[C@@H]32)C1` [Compound I-10, 3-(((1S,4aS,4bR,6aR,8R,10aS,10bR,12aS)-8-hydroxy-8,12a-dimethyloctadecahydrochrysen-1-yl)amino)benzonitrile]: where the note is “Table I-4”, the IC50 is 10 to 100 nM. On to `C[C@@]1(O)CC[C@H]2[C@H](CC[C@@H]3[C@@H]2CC[C@]2(C)[C@H](Nc4cccc(C#N)c4)CCC[C@@H]32)C1` [Compound I-10a, 3-(((1R,4aS,4bR,6aR,8R,10aS,10bR,12aS)-8-hydroxy-8,12a-dimethyloctadecahydrochrysen-1-yl)amino)benzonitrile], for which, for the setting “Table I-4”, the IC50 was in the range of 100 to 1000 nM. For the molecule `C[C@@]1(O)CC[C@H]2[C@H](CC[C@@H]3[C@@H]2CC[C@]2(C)[C@@H](Nc4ccc(F)cc4)CCC[C@@H]32)C1` [Compound I-11, (2R,4aS,4bR,6aS,7S,10aS,10bR,12aR)-7-((4-fluorophenyl)amino)-2,6a-dimethyloctadecahydrochrysen-2-ol], the IC50 (Table I-4) fell in the range of 100 to 1000 nM.

Consider `C[C@@]1(O)CC[C@H]2[C@H](CC[C@@H]3[C@@H]2CC[C@]2(C)[C@H](Nc4ccc(F)cc4)CCC[C@@H]32)C1` [Compound I-11a, (2R,4aS,4bR,6aS,7R,10aS,10bR,12aR)-7-((4-fluorophenyl)amino)-2,6a-dimethyloctadecahydrochrysen-2-ol], for which, for the setting “Table I-4”, the IC50 lay in the range of 1000 to 10000 nM. As to `C[C@@]1(O)CC[C@H]2[C@H](CC[C@@H]3[C@@H]2CC[C@]2(C)[C@@H](Nc4cccc(F)c4)CCC[C@@H]32)C1` [Compound I-12, (2R,4aS,4bR,6aS,7S,10aS,10bR,12aR)-7-((3-fluorophenyl)amino)-2,6a-dimethyloctadecahydrochrysen-2-ol], for the setting “Table I-4”, the IC50 is 10 to 100 nM. Consider `C[C@@]1(O)CC[C@H]2[C@H](CC[C@@H]3[C@@H]2CC[C@]2(C)[C@@H](C(=O)NCc4ccccc4)CCC[C@@H]32)C1` [Compound I-14, (1S,4aS,4bR,6aR,8R,10aS,10bR,12aS)-N-benzyl-8-hydroxy-8,12a-dimethyloctadecahydrochrysene-1-carboxamide], for which the IC50 (Table I-4) lay in the range of 10 to 100 nM. For the molecule `C[C@@]1(O)CC[C@H]2[C@H](CC[C@@H]3[C@@H]2CC[C@]2(C)[C@@H](C(=O)Nc4ccccc4)CCC[C@@H]32)C1` [Compound I-15, (1S,4aS,4bR,6aR,8R,10aS,10bR,12aS)-8-hydroxy-8,12a-dimethyl-N-phenyloctadecahydrochrysene-1-carboxamide], for the setting “Table I-4”, the IC50 was in the range of 10 to 100 nM. As to `CCN(CC)C(=O)[C@H]1CCC[C@H]2[C@@H]3CC[C@@H]4C[C@](C)(O)CC[C@@H]4[C@H]3CC[C@]12C` [Compound I-16, (1S,4aS,4bR,6aR,8R,10aS,10bR,12aS)-N,N-diethyl-8-hydroxy-8,12a-dimethyloctadecahydrochrysene-1-carboxamide], the IC50 (Table I-4) was 1000 to 10000 nM.

For the molecule `C[C@@]1(O)CC[C@H]2[C@H](CC[C@@H]3[C@@H]2CC[C@]2(C)[C@@H](C(=O)NCc4ccccn4)CCC[C@@H]32)C1` [Compound I-17, (1S,4aS,4bR,6aR,8R,10aS,10bR,12aS)-8-hydroxy-8,12a-dimethyl-N-(pyridin-2-ylmethyl)octadecahydrochrysene-1-carboxamide], for the setting “Table I-4”, the IC50 was 10 to 100 nM.

With `Cc1nnn(CC(=O)[C@H]2CCC[C@H]3[C@@H]4CC[C@@H]5C[C@](C)(O)CC[C@]5(C)[C@H]4CC[C@]23C)n1` [Compound I-20, 1-((1S,4aS,4bR,6aR,8R,10aS,10bS,12aS)-8-hydroxy-8,10a,12a-trimethyloctadecahydrochrysen-1-yl)-2-(5-methyl-2H-tetrazol-2-yl)ethan-1-one], the IC50 (Table I-4) was 100 to 1000 nM.

Consider `Cc1nnnn1CC(=O)[C@H]1CCC[C@H]2[C@@H]3CC[C@@H]4C[C@](C)(O)CC[C@]4(C)[C@H]3CC[C@]12C` [Compound I-20a, 1-((1S,4aS,4bR,6aR,8R,10aS,10bS,12aS)-8-hydroxy-8,10a,12a-trimethyloctadecahydrochrysen-1-yl)-2-(5-methyl-1H-tetrazol-1-yl)ethan-1-one], for which the IC50 (Table I-4) fell in the range of 100 to 1000 nM.

Turning to `COC[C@@]1(O)CC[C@H]2[C@@H](CC[C@@H]3[C@@H]2CC[C@]2(C)[C@@H](Nc4ccc(F)cc4)CCC[C@@H]32)C1` [Compound I-23, (2R,4aS,4bR,6aS,7S,10aS,10bR,12aS)-7-((4-fluorophenyl)amino)-2-(methoxymethyl)-6a-methyloctadecahydrochrysen-2-ol], the IC50 (Table I-4) is 10 to 100 nM. For `COC[C@@]1(O)CC[C@H]2[C@@H](CC[C@@H]3[C@@H]2CC[C@]2(C)[C@H](Nc4ccc(F)cc4)CCC[C@@H]32)C1` [Compound I-23a, (2R,4aS,4bR,6aS,7R,10aS,10bR,12aS)-7-((4-fluorophenyl)amino)-2-(methoxymethyl)-6a-methyloctadecahydrochrysen-2-ol], the IC50 (Table I-4) lay in the range of 1000 to 10000 nM.

As to `COC[C@@]1(O)CC[C@H]2[C@@H](CC[C@@H]3[C@@H]2CC[C@]2(C)[C@@H](C(=O)NCc4ccccc4)CCC[C@@H]32)C1` [Compound I-25, (1S,4aS,4bR,6aS,8R,10aS,10bR,12aS)-N-benzyl-8-hydroxy-8-(methoxymethyl)-12a-methyloctadecahydrochrysene-1-carboxamide], the IC50 (Table I-4) fell in the range of 10 to 100 nM. With `COC[C@@]1(O)CC[C@H]2[C@@H](CC[C@@H]3[C@@H]2CC[C@]2(C)[C@@H](C(=O)NCc4ccccn4)CCC[C@@H]32)C1` [Compound I-26, (1S,4aS,4bR,6aS,8R,10aS,10bR,12aS)-8-hydroxy-8-(methoxymethyl)-12a-methyl-N-(pyridin-2-ylmethyl)octadecahydrochrysene-1-carboxamide], where the note is “Table I-4”, the IC50 fell in the range of 100 to 1000 nM. Consider `COC[C@@]1(O)CC[C@H]2[C@@H](CC[C@@H]3[C@@H]2CC[C@]2(C)[C@@H](C(=O)Nc4ccccc4)CCC[C@@H]32)C1` [Compound I-27, (1S,4aS,4bR,6aS,8R,10aS,10bR,12aS)-8-hydroxy-8-(methoxymethyl)-12a-methyl-N-phenyloctadecahydrochrysene-1-carboxamide], for which, under “Table I-4”, the IC50 was 10 to 100 nM. Turning to `CCOC[C@@]1(O)CC[C@H]2[C@@H](CC[C@@H]3[C@@H]2CC[C@]2(C)[C@@H](O)CCC[C@@H]32)C1` [Compound I-39, (1S,4aS,4bR,6aS,8R,10aS,10bR,12aS)-8-(ethoxymethyl)-12a-methyloctadecahydrochrysene-1,8-diol], the IC50 (Table I-4) fell in the range of 1000 to 10000 nM.

Regarding `CCOC[C@@]1(O)CC[C@H]2[C@@H](CC[C@@H]3[C@@H]2CC[C@]2(C)[C@@H](OC)CCC[C@@H]32)C1` [Compound I-40, (2R,4aS,4bR,6aS,7S,10aS,10bR,12aS)-2-(ethoxymethyl)-7-methoxy-6a-methyloctadecahydrochrysen-2-ol], the half-maximal inhibitory concentration (IC50) (Table I-4) was in the range of 100 to 1000 nM. Take `C[C@@H]1CC[C@H]2[C@@H]3CC[C@@H]4C[C@](C)(O)CC[C@@H]4[C@H]3CC[C@]2(C)C1=O` [Compound I-50, (2R,4aS,4bR,6aR,8R,10aS,10bR,12aS)-8-hydroxy-2,8,12a-trimethylhexadecahydrochrysen-1(2H)-one]: the IC50 (Table I-4) was in the range of 1000 to 10000 nM. Take `COC[C@@]1(O)CC[C@H]2[C@H](CC[C@@H]3[C@@H]2CC[C@]2(C)C(=O)[C@H](C)CC[C@@H]32)C1` [Compound I-53, (2R,4aS,4bR,6aR,8R,10aS,10bR,12aS)-8-hydroxy-8-(methoxymethyl)-2,12a-dimethylhexadecahydrochrysen-1(2H)-one]: where the note is “Table I-4”, the IC50 is 1000 to 10000 nM. With `CC(=O)[C@H]1C[C@H]2[C@@H]3CC[C@@H]4C[C@](C)(O)CC[C@]4(C)[C@H]3CC[C@]12C` [Compound I-103, 1-((1S,2aS,2bR,4aR,6R,8aS,8bS,10aS)-6-hydroxy-6,8a,10a-trimethylhexadecahydrocyclobuta[a]phenanthren-1-yl)ethan-1-one], the IC50 (Table I-5) was in the range of 100 to 1000 nM. Still for that read-out and setting: the value for `CC(=O)[C@@H]1C[C@H]2[C@@H]3CC[C@@H]4C[C@](C)(O)CC[C@]4(C)[C@H]3CC[C@]12C` [Compound I-103a, 1-((1R,2aS,2bR,4aR,6R,8aS,8bS,10aS)-6-hydroxy-6,8a,10a-trimethylhexadecahydrocyclobuta[a]phenanthren-1-yl)ethan-1-one] was 1000 to 10000 nM.
